These results are taken from patent publication US20250304596A1, “PYRAZINE DERIVATIVES AND USES THEREOF” (FOGHORN THERAPEUTICS INC., priority 2022, published 2025).

Where only a bound is given, the exact number is not on record here.

Test [1] concerns the target T1, HiBit-BRM fusion protein (Homo sapiens, UniProt P51531).
T1 construct: expressed in transfected cells
The test can be described thus: HiBiT-BRM cell-based degradation assay (Nano-Glo HiBiT Lytic Detection, 24 h). The note with it: stable HeLa cell line expressing HiBiT-BRM; for DC50: read-out: BRM HiBit Degradation IC50. The method, boiled down: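 Luminescence from LgBiT complementation after lysis measured HiBiT-BRM levels in stably expressing HeLa cells. Compounds were dosed at up to 30 μM final, in 3-fold 10-point dilutions, for 24 h. Percent degradation was scaled between DMSO wells and wells treated with 2 μM standard BRM/BRG1 degrader.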

For test [2], the target named is T2, HiBit-BRG1 fusion protein (Homo sapiens, UniProt P51532).
T2 construct: expressed in transfected cells
As to the kind of experiment: HiBiT-BRG1 cell-based degradation assay (Nano-Glo HiBiT Lytic Detection, 24 h). The note with it: stable HeLa cell line expressing HiBit-BRG1 and LgBit; for Dmax: read-out: BRG1 HiBit Degradation Maximum (%); for DC50: read-out: BRMG1 HiBit Degradation IC50. The method, boiled down:
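Degradation read by lytic NanoBiT luminescence after 24 h compound exposure of a stable HiBit-BRG1/LgBit HeLa line. Ten-point, 3-fold series in duplicate, top final dose 30 μM; DMSO and 2 μM standard degrader define 0% and 100% degradation.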
(In general: With HiBiT, luminescence reflects the tagged protein that the partner subunit can reach.)

T1 sequence (P51531 whole entry, the tested form may be a part): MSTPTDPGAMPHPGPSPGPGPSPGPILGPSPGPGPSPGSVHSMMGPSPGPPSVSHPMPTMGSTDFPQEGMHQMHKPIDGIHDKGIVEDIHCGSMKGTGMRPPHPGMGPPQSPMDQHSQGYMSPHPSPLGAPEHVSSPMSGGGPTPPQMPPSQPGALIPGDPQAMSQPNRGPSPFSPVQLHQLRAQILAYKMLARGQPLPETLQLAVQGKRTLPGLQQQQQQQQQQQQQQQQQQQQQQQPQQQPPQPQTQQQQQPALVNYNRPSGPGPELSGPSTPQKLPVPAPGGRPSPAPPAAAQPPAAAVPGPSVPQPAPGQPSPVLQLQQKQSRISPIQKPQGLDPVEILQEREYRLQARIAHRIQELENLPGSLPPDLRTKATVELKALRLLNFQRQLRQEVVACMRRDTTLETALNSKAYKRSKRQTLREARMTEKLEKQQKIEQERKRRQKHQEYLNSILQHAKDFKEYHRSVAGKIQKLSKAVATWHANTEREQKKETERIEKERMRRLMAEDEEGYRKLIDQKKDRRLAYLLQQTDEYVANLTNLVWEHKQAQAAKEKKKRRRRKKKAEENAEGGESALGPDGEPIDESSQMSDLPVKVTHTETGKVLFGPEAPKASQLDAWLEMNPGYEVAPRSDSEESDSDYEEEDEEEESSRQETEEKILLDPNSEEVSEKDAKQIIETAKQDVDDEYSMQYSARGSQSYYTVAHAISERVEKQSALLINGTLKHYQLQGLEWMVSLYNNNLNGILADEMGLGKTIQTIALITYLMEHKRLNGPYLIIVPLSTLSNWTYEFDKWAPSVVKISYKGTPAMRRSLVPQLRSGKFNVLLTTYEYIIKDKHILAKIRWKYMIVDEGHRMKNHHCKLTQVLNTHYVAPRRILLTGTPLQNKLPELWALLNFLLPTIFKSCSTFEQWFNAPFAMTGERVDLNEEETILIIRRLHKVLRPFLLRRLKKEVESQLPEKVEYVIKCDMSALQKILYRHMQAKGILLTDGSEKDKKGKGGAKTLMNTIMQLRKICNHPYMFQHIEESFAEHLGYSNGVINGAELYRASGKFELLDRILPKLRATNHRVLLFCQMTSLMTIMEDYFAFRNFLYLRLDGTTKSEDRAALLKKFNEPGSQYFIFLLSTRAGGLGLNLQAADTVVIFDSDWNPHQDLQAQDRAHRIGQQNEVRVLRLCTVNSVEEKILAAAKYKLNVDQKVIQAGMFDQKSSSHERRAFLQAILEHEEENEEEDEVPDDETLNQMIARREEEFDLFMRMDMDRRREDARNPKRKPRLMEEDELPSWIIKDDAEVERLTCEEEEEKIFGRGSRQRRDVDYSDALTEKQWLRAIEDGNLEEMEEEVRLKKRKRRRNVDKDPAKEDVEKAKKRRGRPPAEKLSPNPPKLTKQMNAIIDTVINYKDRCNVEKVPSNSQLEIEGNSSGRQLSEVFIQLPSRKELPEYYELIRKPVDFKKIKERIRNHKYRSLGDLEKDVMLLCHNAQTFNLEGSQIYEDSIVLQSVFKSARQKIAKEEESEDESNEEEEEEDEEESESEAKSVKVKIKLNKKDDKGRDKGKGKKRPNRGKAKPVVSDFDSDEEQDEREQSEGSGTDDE
T2 sequence (P51532 whole entry, the tested form may be a part): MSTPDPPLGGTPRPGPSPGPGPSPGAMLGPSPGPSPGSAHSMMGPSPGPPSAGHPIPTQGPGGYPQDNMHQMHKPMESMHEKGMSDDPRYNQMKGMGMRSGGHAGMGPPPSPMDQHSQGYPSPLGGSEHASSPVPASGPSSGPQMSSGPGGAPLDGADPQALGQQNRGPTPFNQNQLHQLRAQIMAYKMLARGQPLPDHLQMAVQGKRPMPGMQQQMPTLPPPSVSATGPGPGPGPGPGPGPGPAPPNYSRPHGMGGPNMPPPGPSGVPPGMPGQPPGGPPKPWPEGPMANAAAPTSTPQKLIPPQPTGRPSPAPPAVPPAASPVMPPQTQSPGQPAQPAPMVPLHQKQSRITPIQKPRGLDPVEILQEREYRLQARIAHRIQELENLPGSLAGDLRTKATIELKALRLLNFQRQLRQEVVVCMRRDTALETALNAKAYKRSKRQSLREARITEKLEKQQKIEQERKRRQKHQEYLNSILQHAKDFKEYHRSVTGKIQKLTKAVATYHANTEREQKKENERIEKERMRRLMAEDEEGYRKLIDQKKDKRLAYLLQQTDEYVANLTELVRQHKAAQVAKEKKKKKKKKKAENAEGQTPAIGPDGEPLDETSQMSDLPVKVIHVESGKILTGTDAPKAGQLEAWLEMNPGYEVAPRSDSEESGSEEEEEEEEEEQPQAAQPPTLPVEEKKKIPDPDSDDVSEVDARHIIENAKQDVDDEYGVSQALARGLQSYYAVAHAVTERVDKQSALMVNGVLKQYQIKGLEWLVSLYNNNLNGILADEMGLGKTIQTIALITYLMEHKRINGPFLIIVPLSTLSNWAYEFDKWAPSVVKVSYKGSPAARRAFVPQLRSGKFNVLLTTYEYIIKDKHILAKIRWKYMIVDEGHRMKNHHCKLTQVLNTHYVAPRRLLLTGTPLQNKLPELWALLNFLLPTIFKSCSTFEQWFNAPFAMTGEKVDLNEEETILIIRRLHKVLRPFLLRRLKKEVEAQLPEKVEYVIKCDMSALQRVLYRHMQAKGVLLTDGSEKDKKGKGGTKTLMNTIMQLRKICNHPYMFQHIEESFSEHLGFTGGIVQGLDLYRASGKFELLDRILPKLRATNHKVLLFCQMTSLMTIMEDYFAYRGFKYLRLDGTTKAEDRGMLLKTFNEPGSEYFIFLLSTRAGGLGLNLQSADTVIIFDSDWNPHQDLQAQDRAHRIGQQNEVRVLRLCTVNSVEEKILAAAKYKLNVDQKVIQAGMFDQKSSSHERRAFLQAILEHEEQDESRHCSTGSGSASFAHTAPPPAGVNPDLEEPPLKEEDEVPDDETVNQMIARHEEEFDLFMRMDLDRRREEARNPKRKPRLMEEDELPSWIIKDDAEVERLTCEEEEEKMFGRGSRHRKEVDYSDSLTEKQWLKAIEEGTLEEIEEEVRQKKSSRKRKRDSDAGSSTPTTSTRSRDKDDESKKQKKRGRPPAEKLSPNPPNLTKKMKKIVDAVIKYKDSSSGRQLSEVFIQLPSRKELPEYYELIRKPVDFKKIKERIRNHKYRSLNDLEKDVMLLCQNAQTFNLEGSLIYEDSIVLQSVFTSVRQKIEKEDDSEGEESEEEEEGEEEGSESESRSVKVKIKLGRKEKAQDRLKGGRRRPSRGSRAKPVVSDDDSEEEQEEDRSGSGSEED

As to `Cc1ncsc1-c1ccc([C@H](C)NC(=O)[C@@H]2C[C@@H](O)CN2C(=O)[C@@H](c2cc(-c3cnc(N4CCC(c5sc6nnc(-c7ccccc7O)cc6c5C)CC4)cn3)no2)C(C)C)cc1` [Compound 28, (2S,4R)-4-hydroxy-1-((R)-2-(3-(5-(4-(3-(2-hydroxyphenyl)-5-methylthieno[2,3-c]pyridazin-6-yl)piperidin-1-yl)pyrazin-2-yl)isoxazol-5-yl)-3-methylbutanoyl)-N-((S)-1-(4-(4-methylthiazol-5-yl)phenyl)ethyl)pyrrolidine-2-carboxamide], in test [1], the “BRM HiBit Degradation Maximum (%)” value is “A (“A” indicates maximum degradation ≥75%)” and the DC50 was less than 0.01 µM. Further, in test [2], the Dmax is less than 50% and the DC50 was more than 1 µM.
Taken in the same sequence, the figures for `Cc1ncsc1-c1ccc([C@H](C)NC(=O)[C@@H]2C[C@@H](O)CN2C(=O)[C@@H](c2cc(-c3cnc(N4CCC(c5sc6nnc(-c7cccc(Cl)c7O)cc6c5C)CC4)nc3)no2)C(C)C)cc1` [Compound 29, (2S,4R)-1-((R)-2-(3-(2-(4-(3-(3-chloro-2-hydroxyphenyl)-5-methylthieno[2,3-c]pyridazin-6-yl)piperidin-1-yl)pyrimidin-5-yl)isoxazol-5-yl)-3-methylbutanoyl)-4-hydroxy-N-((S)-1-(4-(4-methylthiazol-5-yl)phenyl)ethyl)pyrrolidine-2-carboxamide] were “C (“C” indicates maximum degradation <50%)”, more than 1 µM, less than 50% and more than 1 µM.
Taken in the same sequence, the figures for `Cc1ncsc1-c1ccc([C@H](C)NC(=O)[C@@H]2C[C@@H](O)CN2C(=O)[C@@H](c2cc(-c3cnc(N4CC[C@@H](c5sc6nnc(-c7ccccc7O)cc6c5C)C[C@H]4C)nc3)no2)C(C)C)cc1` [Compound 30, (2S,4R)-4-hydroxy-1-((R)-2-(3-(2-((2R,4R)-4-(3-(2-hydroxyphenyl)-5-methylthieno[2,3-c]pyridazin-6-yl)-2-methylpiperidin-1-yl)pyrimidin-5-yl)isoxazol-5-yl)-3-methylbutanoyl)-N-((S)-1-(4-(4-methylthiazol-5-yl)phenyl)ethyl)pyrrolidine-2-carboxamide] were “A (“A” indicates maximum degradation ≥75%)”, less than 0.01 µM, less than 50% and more than 1 µM.
For `Cc1ncsc1-c1ccc([C@H](C)NC(=O)[C@@H]2C[C@@H](O)CN2C(=O)[C@@H](c2cc(C3CCN(c4ncc(-c5sc6nnc(-c7ccccc7O)cc6c5C)cn4)CC3)no2)C(C)C)cc1` [Compound 32, (2S,4R)-4-hydroxy-1-((R)-2-(3-(1-(5-(3-(2-hydroxyphenyl)-5-methylthieno[2,3-c]pyridazin-6-yl)pyrimidin-2-yl)piperidin-4-yl)isoxazol-5-yl)-3-methylbutanoyl)-N-((S)-1-(4-(4-methylthiazol-5-yl)phenyl)ethyl)pyrrolidine-2-carboxamide], in that order: “C (“C” indicates maximum degradation <50%)”, more than 1 µM, less than 50% and more than 1 µM.
`Cc1ncsc1-c1ccc([C@H](C)NC(=O)[C@@H]2C[C@@H](O)CN2C(=O)[C@@H](c2cc(-c3ccc(N4CCC(c5cc6cc(-c7ccccc7O)nnc6s5)CC4)nn3)no2)C(C)C)cc1` [Compound 33, (2S,4R)-4-hydroxy-1-((R)-2-(3-(6-(4-(3-(2-hydroxyphenyl)thieno[2,3-c]pyridazin-6-yl)piperidin-1-yl)pyridazin-3-yl)isoxazol-5-yl)-3-methylbutanoyl)-N-((S)-1-(4-(4-methylthiazol-5-yl)phenyl)ethyl)pyrrolidine-2-carboxamide]: in test [1], the “BRM HiBit Degradation Maximum (%)” value was “A (“A” indicates maximum degradation ≥75%)” and the DC50 is more than 0.01 µM. For the same compound, in test [2], the Dmax is less than 50% and the DC50 was more than 1 µM.
Taken in the same sequence, the figures for `Cc1ncsc1-c1ccc([C@H](C)NC(=O)[C@@H]2C[C@@H](O)CN2C(=O)[C@@H](c2cc(-c3ccc(N4CCC(c5sc6nnc(-c7ccccc7O)cc6c5C)CC4)cn3)no2)C(C)C)cc1` [Compound 34, (2S,4R)-4-hydroxy-1-((R)-2-(3-(5-(4-(3-(2-hydroxyphenyl)-5-methylthieno[2,3-c]pyridazin-6-yl)piperidin-1-yl)pyridin-2-yl)isoxazol-5-yl)-3-methylbutanoyl)-N-((S)-1-(4-(4-methylthiazol-5-yl)phenyl)ethyl)pyrrolidine-2-carboxamide] were “A (“A” indicates maximum degradation ≥75%)”, less than 0.01 µM, less than 50% and more than 1 µM.
Taken in the same sequence, the figures for `Cc1ncsc1-c1ccc([C@H](C)NC(=O)[C@@H]2C[C@@H](O)CN2C(=O)[C@@H](c2cc(-c3ncc(N4CCC(c5sc6nnc(-c7ccccc7O)cc6c5C)CC4)cn3)no2)C(C)C)cc1` [Compound 36, (2S,4R)-4-hydroxy-1-((R)-2-(3-(5-(4-(3-(2-hydroxyphenyl)-5-methylthieno[2,3-c]pyridazin-6-yl)piperidin-1-yl)pyrimidin-2-yl)isoxazol-5-yl)-3-methylbutanoyl)-N-((S)-1-(4-(4-methylthiazol-5-yl)phenyl)ethyl)pyrrolidine-2-carboxamide] were “A (“A” indicates maximum degradation ≥75%)”, more than 0.01 µM, less than 50% and more than 1 µM.
For `Cc1cc(N2CCC(c3sc4nnc(-c5ccccc5O)cc4c3C)CC2)ncc1-c1cc([C@H](C(=O)N2C[C@H](O)C[C@H]2C(=O)N[C@@H](C)c2ccc(-c3scnc3C)cc2)C(C)C)on1` [Compound 38, (2S,4R)-4-hydroxy-1-((R)-2-(3-(6-(4-(3-(2-hydroxyphenyl)-5-methylthieno[2,3-c]pyridazin-6-yl)piperidin-1-yl)-4-methylpyridin-3-yl)isoxazol-5-yl)-3-methylbutanoyl)-N-((S)-1-(4-(4-methylthiazol-5-yl)phenyl)ethyl)pyrrolidine-2-carboxamide], in that order: “A (“A” indicates maximum degradation ≥75%)”, less than 0.01 µM, less than 50% and more than 1 µM.
As to `Cc1ncsc1-c1ccc([C@H](C)NC(=O)[C@@H]2C[C@@H](O)CN2C(=O)[C@@H](c2cc(-c3ccc(N4CCC(c5cc6cc(-c7ccccc7O)nnc6s5)CC4)nc3)no2)C(C)C)cc1` [Compound 39, (2S,4R)-4-hydroxy-1-((R)-2-(3-(6-(4-(3-(2-hydroxyphenyl)thieno[2,3-c]pyridazin-6-yl)piperidin-1-yl)pyridin-3-yl)isoxazol-5-yl)-3-methylbutanoyl)-N-((S)-1-(4-(4-methylthiazol-5-yl)phenyl)ethyl)pyrrolidine-2-carboxamide], in test [1], the “BRM HiBit Degradation Maximum (%)” value is “A (“A” indicates maximum degradation ≥75%)” and the DC50 is more than 0.01 µM. In test [2], the Dmax was less than 50% and the DC50 is more than 1 µM.
